Columns and labels:
mouse Piezo1 = target: T1, mouse Piezo1 (Mus musculus, UniProt E2JF22); experiment: Fura-2 intracellular Ca2+ assay, 96-well plate reader; format: cell-based
T1 construct: the Dooku1 and ruthenium red rows are from native C57BL/6J cardiac fibroblasts

[1] = target: T2, Piezo1 (human cardiac fibroblasts, endogenous) (Homo sapiens, UniProt Q92508); experiment: as above; format: cell-based; conditions: activator (agonist); native human cardiac fibroblasts; 2.5 mM probenecid, 1.5 mM CaCl2, pH 7.4; estimate, Yoda1 limited to 10 μM by solubility
T2 construct: endogenous full-length channel in cultured human atrial cardiac fibroblasts; Yoda1 response reduced by Piezo1 siRNA
T2 sequence (Q92508 whole entry): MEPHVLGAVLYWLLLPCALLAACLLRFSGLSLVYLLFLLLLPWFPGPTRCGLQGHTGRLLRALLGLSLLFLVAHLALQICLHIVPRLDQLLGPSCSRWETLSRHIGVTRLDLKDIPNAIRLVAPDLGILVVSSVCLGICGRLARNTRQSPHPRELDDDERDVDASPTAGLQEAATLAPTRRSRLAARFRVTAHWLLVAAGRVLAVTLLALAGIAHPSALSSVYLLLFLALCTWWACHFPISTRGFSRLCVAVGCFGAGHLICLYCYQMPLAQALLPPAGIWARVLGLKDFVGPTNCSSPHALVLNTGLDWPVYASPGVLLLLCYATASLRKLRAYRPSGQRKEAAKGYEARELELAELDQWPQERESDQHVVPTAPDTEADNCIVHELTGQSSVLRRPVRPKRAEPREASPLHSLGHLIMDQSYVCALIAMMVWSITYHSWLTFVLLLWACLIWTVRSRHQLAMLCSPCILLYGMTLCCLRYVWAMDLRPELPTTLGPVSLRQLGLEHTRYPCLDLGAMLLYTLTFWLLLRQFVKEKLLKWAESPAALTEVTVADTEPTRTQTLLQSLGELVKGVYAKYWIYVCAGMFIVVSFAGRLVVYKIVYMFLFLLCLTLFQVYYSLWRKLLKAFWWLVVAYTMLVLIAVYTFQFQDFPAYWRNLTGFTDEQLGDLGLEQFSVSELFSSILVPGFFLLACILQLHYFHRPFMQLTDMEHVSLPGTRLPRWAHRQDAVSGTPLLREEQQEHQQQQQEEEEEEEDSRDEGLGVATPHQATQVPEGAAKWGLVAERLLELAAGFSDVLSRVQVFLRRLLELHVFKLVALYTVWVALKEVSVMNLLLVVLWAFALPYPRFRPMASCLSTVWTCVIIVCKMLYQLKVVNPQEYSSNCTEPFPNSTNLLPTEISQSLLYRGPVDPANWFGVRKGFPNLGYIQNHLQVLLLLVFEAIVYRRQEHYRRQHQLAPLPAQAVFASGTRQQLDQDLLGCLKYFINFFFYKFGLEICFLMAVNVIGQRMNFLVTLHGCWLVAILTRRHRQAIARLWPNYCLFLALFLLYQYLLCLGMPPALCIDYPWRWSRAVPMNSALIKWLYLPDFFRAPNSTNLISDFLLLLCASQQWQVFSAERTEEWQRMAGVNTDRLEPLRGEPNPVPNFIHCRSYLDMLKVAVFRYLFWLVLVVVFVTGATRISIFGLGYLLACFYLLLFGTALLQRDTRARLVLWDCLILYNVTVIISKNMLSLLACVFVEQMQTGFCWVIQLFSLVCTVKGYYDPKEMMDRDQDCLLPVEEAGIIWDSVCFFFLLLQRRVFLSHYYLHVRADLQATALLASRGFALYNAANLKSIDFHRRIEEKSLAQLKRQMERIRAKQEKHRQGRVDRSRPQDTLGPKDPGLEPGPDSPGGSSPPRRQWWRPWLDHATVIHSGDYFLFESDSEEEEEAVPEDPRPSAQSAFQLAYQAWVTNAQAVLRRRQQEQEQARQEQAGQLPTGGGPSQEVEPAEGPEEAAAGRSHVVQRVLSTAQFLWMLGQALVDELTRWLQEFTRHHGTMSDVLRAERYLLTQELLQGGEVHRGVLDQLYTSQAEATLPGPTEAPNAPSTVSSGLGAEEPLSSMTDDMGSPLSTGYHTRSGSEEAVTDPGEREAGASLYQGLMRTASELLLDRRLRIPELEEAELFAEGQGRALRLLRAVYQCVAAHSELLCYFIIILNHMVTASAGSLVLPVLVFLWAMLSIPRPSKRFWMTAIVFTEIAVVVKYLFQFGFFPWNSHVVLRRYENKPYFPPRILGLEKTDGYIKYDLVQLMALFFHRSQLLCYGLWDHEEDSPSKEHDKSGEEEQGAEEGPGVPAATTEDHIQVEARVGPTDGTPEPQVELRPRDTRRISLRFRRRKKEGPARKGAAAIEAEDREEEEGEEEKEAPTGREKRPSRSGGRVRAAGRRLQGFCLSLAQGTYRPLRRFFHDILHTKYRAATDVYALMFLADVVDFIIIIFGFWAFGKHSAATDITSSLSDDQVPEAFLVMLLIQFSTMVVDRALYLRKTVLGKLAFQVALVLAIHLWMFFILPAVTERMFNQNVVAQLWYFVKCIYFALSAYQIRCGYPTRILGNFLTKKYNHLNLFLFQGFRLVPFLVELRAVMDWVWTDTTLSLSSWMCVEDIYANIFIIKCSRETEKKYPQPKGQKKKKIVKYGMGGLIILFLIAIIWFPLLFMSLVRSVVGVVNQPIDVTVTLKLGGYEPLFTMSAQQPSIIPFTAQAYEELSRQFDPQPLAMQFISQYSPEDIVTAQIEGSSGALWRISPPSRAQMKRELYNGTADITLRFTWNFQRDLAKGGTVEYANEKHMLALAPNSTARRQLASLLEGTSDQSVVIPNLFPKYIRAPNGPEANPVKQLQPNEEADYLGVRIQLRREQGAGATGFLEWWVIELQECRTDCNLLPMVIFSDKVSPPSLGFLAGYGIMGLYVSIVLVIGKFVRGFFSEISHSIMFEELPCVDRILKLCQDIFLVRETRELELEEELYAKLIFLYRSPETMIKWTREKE

T1 sequence (E2JF22 whole entry): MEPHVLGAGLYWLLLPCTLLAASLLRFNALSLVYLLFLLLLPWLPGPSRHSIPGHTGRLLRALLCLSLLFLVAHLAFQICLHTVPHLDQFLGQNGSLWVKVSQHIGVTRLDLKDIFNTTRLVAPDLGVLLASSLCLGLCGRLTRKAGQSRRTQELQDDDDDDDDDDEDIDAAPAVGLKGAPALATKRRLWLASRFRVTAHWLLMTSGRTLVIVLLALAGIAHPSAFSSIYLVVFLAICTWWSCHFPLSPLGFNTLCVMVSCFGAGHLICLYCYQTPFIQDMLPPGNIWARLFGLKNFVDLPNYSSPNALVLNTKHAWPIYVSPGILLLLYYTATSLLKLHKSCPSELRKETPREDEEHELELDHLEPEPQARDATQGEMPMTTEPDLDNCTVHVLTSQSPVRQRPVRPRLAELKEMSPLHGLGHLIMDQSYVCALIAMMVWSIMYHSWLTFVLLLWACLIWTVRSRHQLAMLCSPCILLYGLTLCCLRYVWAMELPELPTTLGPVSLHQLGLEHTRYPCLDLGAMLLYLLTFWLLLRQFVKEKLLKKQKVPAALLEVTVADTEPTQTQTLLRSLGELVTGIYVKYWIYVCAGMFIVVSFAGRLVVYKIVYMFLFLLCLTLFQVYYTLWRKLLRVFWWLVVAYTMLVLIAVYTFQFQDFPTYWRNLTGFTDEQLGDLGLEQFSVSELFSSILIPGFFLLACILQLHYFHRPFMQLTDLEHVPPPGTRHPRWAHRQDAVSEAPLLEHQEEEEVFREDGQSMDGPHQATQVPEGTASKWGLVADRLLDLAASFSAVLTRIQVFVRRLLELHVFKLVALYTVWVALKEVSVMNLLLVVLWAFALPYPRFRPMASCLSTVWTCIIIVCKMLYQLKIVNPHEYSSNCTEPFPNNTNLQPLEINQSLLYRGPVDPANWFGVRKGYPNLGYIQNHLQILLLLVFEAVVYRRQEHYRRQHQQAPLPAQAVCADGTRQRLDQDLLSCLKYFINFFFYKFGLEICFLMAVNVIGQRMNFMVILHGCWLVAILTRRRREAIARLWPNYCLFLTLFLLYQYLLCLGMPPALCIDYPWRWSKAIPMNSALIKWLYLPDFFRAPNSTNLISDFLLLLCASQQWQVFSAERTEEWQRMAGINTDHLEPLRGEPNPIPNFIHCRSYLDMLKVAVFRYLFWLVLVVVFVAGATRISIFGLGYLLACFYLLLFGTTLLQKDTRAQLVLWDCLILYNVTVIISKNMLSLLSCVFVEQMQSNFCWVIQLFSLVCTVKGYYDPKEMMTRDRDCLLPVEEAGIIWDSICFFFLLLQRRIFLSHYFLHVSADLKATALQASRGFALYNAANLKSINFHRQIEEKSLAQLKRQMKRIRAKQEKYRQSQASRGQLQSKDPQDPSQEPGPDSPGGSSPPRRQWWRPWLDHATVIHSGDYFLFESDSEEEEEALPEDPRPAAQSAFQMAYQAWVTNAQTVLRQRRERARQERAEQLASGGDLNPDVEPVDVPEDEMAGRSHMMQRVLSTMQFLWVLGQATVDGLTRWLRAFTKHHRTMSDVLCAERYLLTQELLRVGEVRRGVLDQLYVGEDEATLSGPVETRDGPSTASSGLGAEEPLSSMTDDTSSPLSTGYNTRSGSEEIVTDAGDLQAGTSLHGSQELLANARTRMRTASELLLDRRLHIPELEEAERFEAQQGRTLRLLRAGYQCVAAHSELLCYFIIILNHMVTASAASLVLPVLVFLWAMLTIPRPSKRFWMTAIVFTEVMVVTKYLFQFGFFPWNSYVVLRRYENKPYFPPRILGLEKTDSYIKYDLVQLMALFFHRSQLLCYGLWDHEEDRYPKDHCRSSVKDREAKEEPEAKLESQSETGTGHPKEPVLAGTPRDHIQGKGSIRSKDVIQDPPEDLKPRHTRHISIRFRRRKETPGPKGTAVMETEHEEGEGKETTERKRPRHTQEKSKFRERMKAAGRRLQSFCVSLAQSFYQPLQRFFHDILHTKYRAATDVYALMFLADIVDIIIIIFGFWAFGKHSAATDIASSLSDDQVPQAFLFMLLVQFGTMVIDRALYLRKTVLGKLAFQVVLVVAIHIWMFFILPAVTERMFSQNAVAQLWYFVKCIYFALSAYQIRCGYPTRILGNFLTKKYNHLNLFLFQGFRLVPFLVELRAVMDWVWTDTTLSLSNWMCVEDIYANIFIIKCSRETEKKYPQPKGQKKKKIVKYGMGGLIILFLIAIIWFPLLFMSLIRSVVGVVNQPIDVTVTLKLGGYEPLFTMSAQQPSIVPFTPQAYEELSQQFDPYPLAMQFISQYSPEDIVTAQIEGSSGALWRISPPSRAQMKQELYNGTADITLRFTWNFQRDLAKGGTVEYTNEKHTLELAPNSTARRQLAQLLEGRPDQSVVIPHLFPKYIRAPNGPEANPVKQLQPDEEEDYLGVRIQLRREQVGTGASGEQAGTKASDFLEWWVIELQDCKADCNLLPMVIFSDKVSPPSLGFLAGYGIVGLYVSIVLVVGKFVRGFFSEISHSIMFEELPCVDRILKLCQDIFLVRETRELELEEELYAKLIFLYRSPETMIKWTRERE

## Clc1cccc(Cl)c1CSc1nnc(-c2cnccn2)s1 [Yoda1]
Mouse Piezo1
  EC50: 330 nM
[1]
  EC50: 710 nM

Source: article PMC6873183, “Mechanically activated Piezo1 channels of cardiac fibroblasts stimulate p38 mitogen-activated protein kinase activity and interleukin-6 secretion” (The Journal of Biological Chemistry, 2019)
